# According to publication PMC9150124, “Design of a Potent, Selective, and Brain-Penetrant Inhibitor of Wnt-Deactivating Enzyme Notum by Optimization of a Crystallographic Fragment Hit” (Journal of Medicinal Chemistry, 2022):
# “And” between values parts separate entries of the source, which are not always exact repeats. Identical values can stand only once. Counter-ions that a name gives are not always drawn. Like-named read-outs stand apart in the source and are kept apart here.
# How the values were obtained:
# [1] = molecular target: T1, human Notum (81–451 Cys330Ser) (Homo sapiens, UniProt Q6P988, C330S); test: Notum OPTS biochemical assay; details: for IC50: mean
# T1 construct: human Notum (81–451 Cys330Ser) as the enzyme; made in house
# T1 sequence (Q6P988 81-451 C330S): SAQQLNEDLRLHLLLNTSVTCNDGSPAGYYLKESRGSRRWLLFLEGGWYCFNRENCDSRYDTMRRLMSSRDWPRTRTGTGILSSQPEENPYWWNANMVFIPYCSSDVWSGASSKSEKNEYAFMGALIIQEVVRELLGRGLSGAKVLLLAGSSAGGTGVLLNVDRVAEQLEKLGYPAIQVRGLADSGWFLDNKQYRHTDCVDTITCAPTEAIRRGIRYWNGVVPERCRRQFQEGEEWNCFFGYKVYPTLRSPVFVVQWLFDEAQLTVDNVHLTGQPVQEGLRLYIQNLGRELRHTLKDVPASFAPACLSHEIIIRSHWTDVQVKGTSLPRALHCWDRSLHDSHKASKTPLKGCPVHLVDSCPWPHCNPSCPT
# Source text: The optimization of 6 to deliver this profile was directed at three principle areas of these hit structures: (1) aryl ring 7 (Table 1); (2) the C4 substituent on triazole 8 (Table 2); and (3) further fine-tuning of the triazole 9 (Table 3). […] This assay was used to establish SAR and to identify preferred leads for additional studies.
# Methods have been described in detail elsewhere.[23]−[26] Representative concentration–response curves are provided in the Supporting Information.
# Notum = molecular target: T2, Notum (Homo sapiens, UniProt Q6P988); test: ABPP-TMT (FP-biotin) proteomic analysis in SW620 cells
# T2 sequence (Q6P988 20-496): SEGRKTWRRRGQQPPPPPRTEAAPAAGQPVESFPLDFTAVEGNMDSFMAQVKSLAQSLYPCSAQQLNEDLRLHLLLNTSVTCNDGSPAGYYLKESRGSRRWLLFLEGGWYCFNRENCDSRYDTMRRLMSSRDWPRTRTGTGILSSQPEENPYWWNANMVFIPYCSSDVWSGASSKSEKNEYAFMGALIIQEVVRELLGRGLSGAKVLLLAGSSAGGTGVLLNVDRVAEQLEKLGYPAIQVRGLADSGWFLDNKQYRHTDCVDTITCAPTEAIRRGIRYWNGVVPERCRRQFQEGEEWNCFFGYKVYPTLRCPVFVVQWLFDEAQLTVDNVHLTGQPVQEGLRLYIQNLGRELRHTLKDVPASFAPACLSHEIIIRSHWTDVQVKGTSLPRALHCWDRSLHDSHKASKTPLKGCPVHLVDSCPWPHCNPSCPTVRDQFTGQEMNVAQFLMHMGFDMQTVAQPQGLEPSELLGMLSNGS
# in vitro = details: pH 7.4
# Procedure: G. Plasma protein binding (PPB):
# Method: rapid equilibrium dialysis.
# Test System Mouse Plasma (K2EDTA)
# Test compound concentration 10 µM (mouse) or 2 µM (rat)
# [2] = OPTS substrate, read-out: Notum IC50
# [3] = SW620 conditioned media, 1e-8 M
# [4] = SW620 conditioned media, 3e-8 M
# [5] = SW620 conditioned media, 1e-7 M
# [6] = SW620 conditioned media, 3e-7 M
# [7] = SW620 conditioned media, 1e-6 M
# [8] = SW620 conditioned media, 3e-6 M
# [9] = SW620 conditioned media, 1e-5 M
structure (smiles),measurement,setting,value
"CCOc1ccc(-n2cc(CO)nn2)cc1 [7n, ((4-Ethoxyphenyl)-1H-1,2,3-triazol-4-yl)methanol]",IC50,[1]; [2],78 ± 45 µM
"OCc1cn(-c2ccc(F)cc2)nn1 [7j, ((4-Fluorophenyl)-1H-1,2,3-triazol-4-yl)methanol]",% I,[1]; @100 μM,c 40–50% I@100 μM.
same,IC50,[1]; [2],~100 µM and 100 µM
"N#Cc1ccc(-n2cc(CO)nn2)cc1 [7m, ((4-Cyanophenyl)-1H-1,2,3-triazol-4-yl)methanol]",IC50,[1]; [2],270 ± 310 µM
"CNC(=O)c1cn(-c2ccc(Cl)c(C(F)(F)F)c2Cl)nn1 [8h, 1-(2,4-Dichloro-3-(trifluoromethyl)phenyl)-N-methyl-1H-1,2,3-triazole-4-carboxamide]",IC50,[1]; [2],2.3 ± 0.22 µM
"OCc1cn(-c2ccccc2)nn1 [7a, (1-Phenyl-1H-1,2,3-triazol-4-yl)methanol]",IC50,[1]; [2],110 ± 30 µM
"OCCc1cn(-c2ccc(Cl)c(C(F)(F)F)c2Cl)nn1 [8b, 2-(1-(2,4-Dichloro-3-(trifluoromethyl)phenyl)-1H-1,2,3-triazol-4-yl)ethan-1-ol]",IC50,[1]; [2],5.7 ± 2.5 µM
"NCc1cn(-c2ccc(Cl)c(C(F)(F)F)c2Cl)nn1 [8i, (1-(2,4-Dichloro-3-(trifluoromethyl)phenyl)-1H-1,2,3-triazol-4-yl)methanamine Hydrochloride]",NOTUM intensity normalised to DMSO,Notum; [3],1.002
same,NOTUM intensity normalised to DMSO,Notum; [4],0.8137
same,NOTUM intensity normalised to DMSO,Notum; [5],0.7326
same,NOTUM intensity normalised to DMSO,Notum; [6],0.3649
same,NOTUM intensity normalised to DMSO,Notum; [7],0.1945
same,NOTUM intensity normalised to DMSO,Notum; [8],0.1349
same,NOTUM intensity normalised to DMSO,Notum; [9],0.07262
same,NOTUM intensity normalised to DMSO,"Notum; SW620 lysate, 1e-8 M",1.016
same,NOTUM intensity normalised to DMSO,"Notum; SW620 lysate, 3e-8 M",0.7635
same,NOTUM intensity normalised to DMSO,"Notum; SW620 lysate, 1e-7 M",0.7415
same,NOTUM intensity normalised to DMSO,"Notum; SW620 lysate, 3e-7 M",0.5781
same,NOTUM intensity normalised to DMSO,"Notum; SW620 lysate, 1e-6 M",0.4746
same,NOTUM intensity normalised to DMSO,"Notum; SW620 lysate, 3e-6 M",0.3389
same,NOTUM intensity normalised to DMSO,"Notum; SW620 lysate, 1e-5 M",0.2883
same,IC50,[1]; [2],0.91 ± 0.12 µM
"O=C(O)c1cn(-c2ccc(Cl)c(C(F)(F)F)c2Cl)nn1 [8f, 1-(2,4-Dichloro-3-(trifluoromethyl)phenyl)-1H-1,2,3-triazole-4-carboxylic Acid]",IC50,[1]; [2],0.031 ± 0.01 µM
"NC(=O)c1cn(-c2ccc(Cl)c(C(F)(F)F)c2Cl)nn1 [8g, 1-(2,4-Dichloro-3-(trifluoromethyl)phenyl)-1H-1,2,3-triazole-4-carboxamide]",IC50,[1]; [2],1.2 ± 0.3 µM
"CCOc1cccc(-n2cc(CO)nn2)c1 [7i, ((3-Ethoxyphenyl)-1H-1,2,3-triazol-4-yl)methanol]",IC50,[1]; [2],230 ± 20 µM
"OCCCc1cn(-c2ccc(Cl)c(C(F)(F)F)c2Cl)nn1 [8c, 3-(1-(2,4-Dichloro-3-(trifluoromethyl)phenyl)-1H-1,2,3-triazol-4-yl)propan-1-ol]",IC50,[1]; [2],1.8 ± 0.5 µM
"Cc1ccc(-n2cc(CO)nn2)cc1 [7k, ((4-Methylphenyl)-1H-1,2,3-triazol-4-yl)methanol]",IC50,[1]; [2],13 ± 2 µM
"FC(F)(F)c1c(Cl)ccc(-n2cnnc2)c1Cl [9a, 4-(2,4-Dichloro-3-(trifluoromethyl)phenyl)-4H-1,2,4-triazole]",IC50,[1]; [2],1.3 ± 0.21 µM
"O=C(O)CSc1ncnc2c(C3CC3)c(Cl)sc12 [compound 1, LP-922056, reference compound]",NOTUM intensity normalised to DMSO,Notum; [3],1.677
same,NOTUM intensity normalised to DMSO,Notum; [4],1.111
same,NOTUM intensity normalised to DMSO,Notum; [5],1.2088
same,NOTUM intensity normalised to DMSO,Notum; [6],0.5634
same,NOTUM intensity normalised to DMSO,Notum; [7],0.3108
same,NOTUM intensity normalised to DMSO,Notum; [8],0.1718
same,NOTUM intensity normalised to DMSO,Notum; [9],0.112
same,NOTUM intensity normalised to DMSO,"Notum; SW620 lysate, 1e-8 M",0.811
same,NOTUM intensity normalised to DMSO,"Notum; SW620 lysate, 3e-8 M",0.6714
same,NOTUM intensity normalised to DMSO,"Notum; SW620 lysate, 1e-7 M",0.5739
same,NOTUM intensity normalised to DMSO,"Notum; SW620 lysate, 3e-7 M",0.495
same,NOTUM intensity normalised to DMSO,"Notum; SW620 lysate, 1e-6 M",0.3711
same,NOTUM intensity normalised to DMSO,"Notum; SW620 lysate, 3e-6 M",0.4727
same,NOTUM intensity normalised to DMSO,"Notum; SW620 lysate, 1e-5 M",0.5374
"Cc1cccc(-n2cc(CO)nn2)c1 [7e, ((3-Methylphenyl)-1H-1,2,3-triazol-4-yl)methanol]",% I,[1]; @10 μM,b 40–50% I@10 μM.
same,IC50,[1]; [2],~10 µM and 10 µM
"Cc1cn(-c2ccc(Cl)c(C(F)(F)F)c2Cl)nn1 [8k, 1-(2,4-Dichloro-3-(trifluoromethyl)phenyl)-4-methyl-1H-1,2,3-triazole]",reduction in potency vs 7y,[1],12 fold
same,IC50,[1]; [2],0.11 ± 0.04 µM
"CC(=O)CC(c1ccccc1)c1c(O)c2ccccc2oc1=O (stereo not drawn) [Warfarin, reference compound]","recovery at 4 h, 2 µM","in vitro; SD, rat",100%
same,"fraction unbound at 4 h, 2 µM","in vitro; SD, rat, plasma",0.0063
same,"recovery at 5 h, 10 µM",in vitro; mouse,103%
same,"Plasma protein binding (PPB), % bound","in vitro; mouse, plasma, 5 h, 10 µM",95.71%
same,"fraction unbound at 5 h, 10 µM","in vitro; mouse, plasma",0.0429
"FC(F)(F)c1c(Cl)ccc(-n2cnnn2)c1Cl [9b, 1-(2,4-Dichloro-3-(trifluoromethyl)phenyl)-1H-tetrazole]",IC50,[1]; [2],0.14 ± 0.02 µM
"CC(O)c1cn(-c2ccc(Cl)c(C(F)(F)F)c2Cl)nn1 (stereo not drawn) [8a, 1-(1-(2,4-Dichloro-3-(trifluoromethyl)phenyl)-1H-1,2,3-triazol-4-yl)ethan-1-ol]",IC50,[1]; [2],1.8 ± 1 µM
"OC1(Cc2cn(-c3ccc(Cl)c(C(F)(F)F)c3Cl)nn2)COC1 [8e, 3-((1-(2,4-Dichloro-3-(trifluoromethyl)phenyl)-1H-1,2,3-triazol-4-yl)methyl)oxetan-3-ol]",IC50,[1]; [2],7.4 ± 1.1 µM
"OCc1cn(-c2ccc(C(F)(F)F)c(C(F)(F)F)c2)nn1 [7v, ((3,4-Bis(trifluoromethyl)phenyl)-1H-1,2,3-triazol-4-yl)methanol]",IC50,[1]; [2],2.2 ± 4.4 µM
"OCc1cn(-c2cccc(F)c2)nn1 [7d, ((3-Fluorophenyl)-1H-1,2,3-triazol-4-yl)methanol]",IC50,[1]; [2],25 ± 3 µM
"COCc1cn(-c2ccc(Cl)c(C(F)(F)F)c2Cl)nn1 [8j, 1-(2,4-Dichloro-3-(trifluoromethyl)phenyl)-4-(methoxymethyl)-1H-1,2,3-triazole]",IC50,[1]; [2],0.2 ± 0.05 µM
"CC(O)Cc1cn(-c2ccc(Cl)c(C(F)(F)F)c2Cl)nn1 (stereo not drawn) [8d, 1-(1-(2,4-Dichloro-3-(trifluoromethyl)phenyl)-1H-1,2,3-triazol-4-yl)propan-2-ol]",IC50,"[1]; Notum IC50, OPTS substrate",> 1 µM
same,IC50,[1]; [2],1.7 ± 1.4 µM
"N#Cc1cccc(-n2cc(CO)nn2)c1 [7h, ((3-Cyanophenyl)-1H-1,2,3-triazol-4-yl)methanol]",IC50,[1]; [2],83 ± 36 µM
